Measured values from patent US20240050406A1, “COMPOSITION COMPRISING OXIRACETAM FOR PREVENTING OR TREATING MUSCULAR DISEASE” (KSB TUGEN INC., priority 2021, published 2024).

Experiments:
[1] = tested on: model of sarcopenia caused by aging; experiment: Aging animal model, 22-month-old mice (Experimental Example 2); assay type: in vivo, C57BL/6J mice
From the text: For an experimental group in the present invention, oxiracetam having a structure of Formula 1 was purchased from Tokyo Chemical Industry (Japan; Product No. 00398, CAS RN:62613-82-5, purity: 96%) and used.
As a model of sarcopenia caused by aging, 22-month-old male C57BL/6J mice were used. Until the day of the experiment, general feed (EEGJ30060: Cargill Agri Purina, Seongnam, Korea) and water were sufficiently supplied to the experimental animals, and the animals were acclimated for 1 week under an environment of a temperature of 23±2° C., a humidity of 55±10%, and a light-dark cycle of 12 hours-12 hours and used in the experiment.
The animals were randomly divided into groups of 10 animals, such as a control (vehicle, n=10), and 30, 100, and 300 mg/kg/day oxiracetam-administered groups (n=10 per concentration). To the oxiracetam-administered group, oxiracetam was orally administered using a Zonde needle for 90 days once a day at a dose of 30, 100, or 300 mg/kg/day. During the same period, no drug was administered to the control group, and 100 μL of normal saline was orally administered at a time.
To measure grip strength, a grip strength test was performed. The maximum force presented when the forelimbs of an animal model of each group could no longer hold the rod by pulling the tail horizontally while holding the tail of the animal model and holding the rod of a device with both front paws was considered to be grip strength (N). The grip strength was measured once every 3 days, and after repeating five measurements at one time, the average value was shown. Grip strength adaptation training was performed at least three times before drug administration.
(§1) The lean body mass of the gastrocnemius muscle (GS) and the lean body mass of the tibialis anterior (TA) for each group was measured every 7 days. Specifically, animal models of each group were anesthetized using 3% isoflurane, fixed to a photographing bed and then photographed. During photographing, the respiratory rates and body temperatures of the animal models were measured with an animal monitoring system (SA Instruments, USA).
(§2) The whole body of the animal model was photographed through dual energy X-ray absorptiometry (DEXA) using iNSiGHT VET DXA (Osteosys, KR), and the lean body mass of each of the gastrocnemius muscle (GS) and the tibialis anterior (TA) was measured and calculated from the two-dimensional images of the gastrocnemius muscle (GS) and the tibialis anterior (TA) by a program using the region of interest (ROI).
At 90 days after the start of the experiment, an exercise stress test was performed. First, the experimental animals in each group were acclimatized to a treadmill machine twice before measurement (1st round: inclination 10°, 10 minutes at 5 m/min and 10 minutes at 10 m/min; 2nd round: inclination 10°, 5 minutes at 5 m/min and 15 munutes at 10 m/min). On the day of the experiment, the experimental animals were allowed to run for 20 minutes at an initial speed of 10 m/min at an inclination of 10°, and then the speed was increased by 2 m/min every 2 minutes, and then the running distance and time were measured with the end point when the experimental animal stayed for 10 seconds without running.
Statistical processing was performed using GraphPad Prism (GraphPad Software Inc., San Diego, CA, USA). The results of each repeated experiment were expressed as mean±standard error of mean, and analyzed using the analysis of variance (Tukey's test), and statistical significance was acknowledged when the P-value was 0.05 or less.

[2] = tested on: animal model in which muscular atrophy was induced by dexamethasone; experiment: Comparison with racetam-based drugs in dexamethasone muscular atrophy model (Experimental Example 4); assay type: in vivo, ICR mice
From the text: For an experimental group in the present invention, oxiracetam having a structure of Formula 1 was purchased from Tokyo Chemical Industry (Japan; Product No. 00398, CAS RN:62613-82-5, purity: 96%) and used. Other racetam drugs, such as aniracetam and nepiracetam, were purchased from Bide Pharmatech (W-44; China, Product Nos. BD114391, BD140804, purity: 96%), piracetam, phenylpiracetam, corulacetam and pramiracetam were purchased from Tokyo Chemical Industry (Japan, Product Nos. P2880, P2604, C3689, P2061, purity: 96%), levetiracetam was purchased from Roeun China, Product No. R025860, purity: 96%), brivaracetam was purchased from R&D Systems (USA, Product No. 7271, purity: 96%), rolziracetam and faroracetam were purchased from Targetmol (USA, Product Nos. T16783, T19624, purity: 96%), and rolipram was purchased from Aladdin (MAT; China, Product No. R129674, purity: 96%).
As experimental animals, 7-week-old male ICR mice were purchased and used. […]
To measure grip strength, a grip strength test was performed. […] After measurement before drug administration (day 0) and on day 20 after drug administration began, grip strength variation (%) after drug administration began (day 20) with respect to that before drug administration (day 0) was calculated.
as §1, with “were” for “was”, “Specifically, animal models of each group were anesthetized using 3% isoflurane, fixed to a photographing bed and then photographed.” left out
as §2, with “(ROI). […]” for “(ROI).”

[3] = Oxi 30, Oxi 100, Oxi 300 mg/kg/day oral, DEXA every 7 days, compared to control
[4] = drug 30 mg/kg/day (piracetam 100 mg/kg/day) oral 21 days + dexamethasone, DEXA every 7 days

SMILES: NC(=O)CN1CC(O)CC1=O (racemic) [oxiracetam, (RS)-2-(4-hydroxy-2-oxopyrrolidin-1-yl)acetamide]
- lean body mass of the gastrocnemius muscle (GS) [1, 3]: increased rather than decreased
- lean body mass of the tibialis anterior (TA) [1, 3]: increased rather than decreased
- physical performance capacity (athletic ability), treadmill running distance and time ([1]; Oxi 30, Oxi 100, Oxi 300, day 90, compared to control): increased rather than decreased
- physical performance capacity (athletic ability), treadmill running distance and time ([1]; Oxi 300 group (300 mg/kg/day), day 90): significantly increased
- lean body mass of the gastrocnemius muscle (GS) ([1]; Oxi 300 group (300 mg/kg/day), from week 7): significantly increased
- change in grip strength ([1]; oxiracetam 30, 100 and 300 mg/kg/day oral 90 days, versus control (vehicle)): suppressed and rather increased
- change in grip strength ([2]; drug 30 mg/kg/day (piracetam 100 mg/kg/day) oral 21 days + dexamethasone 10 mg/kg i.p. day 7-21, day 20 vs day 0): recovers to greater than the control
- lean body mass of the gastrocnemius muscle (GS) [2, 4]: recover the lean body mass of the gastrocnemius muscle (GS) to the control (vehicle) level
- lean body mass of the tibialis anterior (TA) [2, 4]: recover the lean body mass of the tibialis anterior (TA) to the control (vehicle) level
